Test results reported in patent publication US8377435B2, “Antibody induced cell membrane wounding” (The Board of Trustees of the Leland Stanford Junior …, priority 2004, dated 2013).
“And” between values parts separate entries of the source, which are not always exact repeats. Equal values may be shown once.

Tests used:
Type in all cases: cell-based, human
Nalm-6 cells = assay: Cell viability assay using PI staining and forward scatter, Nalm-6; conditions: for viability (percent viable cells): jasplakinolide 3 μgs/ml or cytochalasin 5 μgs/ml 2 hr at 37° C; for cell viability: caspase inhibitors 10 μM 2 hr at 37° C before treatment with mAb 216
Protocol: The integrity of the plasma membrane was assessed by the ability of cells to exclude propidium iodide (PI, Sigma, St. Louis, Mo.). The level of PI incorporation was quantitated by flow cytometry on FACScan (Becton-Dickinson, San Jose Calif.) interfaced with VersatermPro and FlowJo software at Stanford's FACS facility. PI-negative cells with normal size as measured by forward scatter signals were considered live cells.
Briefly, cells were treated as specified in each experiment and resuspended in PBS with 3% FCS and 10 μgs/ml of PI. In experiments where toxicity was evaluated in Ca-free medium, cells were resuspended in appropriate media with or without calcium to which 10 μgs/ml PI was added. Since previous studies have shown that mAb 216-mediated toxicity is remarkably […] at lower temperatures (Bhat, N. M., et al. (1996) Clin. Exp. Immunol 105, 183), precautions were taken to keep all media and cells at 37° C. and the centrifuge at room temperature.
Cytochalasin was obtained from Sigma and jasplakinolide was obtained from Molecular Probes (Eugene, Oreg.). Caspase inhibitors, Ac-IETD-CHO and Ac-DEVD-CHO were obtained from PharMingen (San Diego, Calif.). Nalm-6 cells (1×10^6 cells/ml) were treated with jasplakinolide (3 μgs/ml), cytochalasin (5 μgs/ml), or caspase inhibitors (10 μM) for 2 hr at 37° C. before treatment with mAb 216. Control samples with equivalent amounts of DMSO were set in parallel. Cells were then exposed to 25 μg of mAb 216 or control Ab and analyzed by flow cytometry.
Since exocytosis of lysosomes is known to be a calcium dependent phenomenon (Miyake, K., and P. L. McNeil (1995) J. Cell Biol. 131, 1737; Bi, G. Q., et al. (1995) J. Cell Biol. 131, 1747), membrane wounding by mAb 216 and repair of the wound was tested in calcium free and normal calcium conditions. The cell viability of Nalm-6 cells when treated with two VH4-34 encoded mAbs, mAb 216 at 50, 25 and 12.5 ng/ml concentrations, and Y2K at 50 ng/ml, was tested in the presence of media with and without calcium.
Brefeldin-A was obtained from Sigma. Nalm-6 cells (1×10^6 cells/ml) were treated with BFA (25 μg/ml) for 2 hr at 37° C. before treatment with mAb 216. Control samples with equivalent amounts of DMSO were set in parallel. Cells were then exposed to 25 μg of mAb 216 or control Ab and analyzed by flow cytometry.
The in vitro cytotoxicity of mAb 216 to Nalm-6 cells was evaluated using PI staining and viability assessment (percent live cells) as a function of the amount of mAb 216 present. The amount of mAb 216 needed to achieve 50% and 80% viability in Nalm-6 cells with and without a crosslinking agent (a secondary mAb, e.g., anti-human lambda) is shown in Table 1, expressed in nanograms antibody required to achieve the indicated level of cytotoxicity, as determined by PI entry into cells.

Nalm 6 = assay: In vitro cytotoxicity of mAb216 in combination with chemotherapeutic agents, Nalm 6; conditions: for Live cells: Nalm 6, 48 h
Protocol: (§1) Three cell lines which have been derived from ALL blasts of different genotype and phenotype, Nalm 6, REH, and SUPB15, were incubated with mAb 216 alone or in combination with vincristine (VCR), for 48 hours at 37° C.
(§2) In vitro cytotoxicity of mAb216 in combination with single chemotherapeutic agents was tested. Three cell lines which have been derived from ALL blasts of different genotype and phenotype, Nalm 6, REH, and SUPB15, were incubated with mAb 216 alone or in combination with vincristine (VCR), daunorubicin (DNR), or L-asparaginase (ASPR).

SUP B15 = assay: In vitro cytotoxicity of mAb216 in combination with chemotherapeutic agents, SUP B15; conditions: SUP B15, 48 h
Protocol: as §1, §2

REH = assay: In vitro cytotoxicity of mAb216 in combination with chemotherapeutic agents, REH; conditions: 48 h
Protocol: as §1, §2

C[C@H]1CCC/C=C/[C@@H]2C[C@H](O)C[C@H]2[C@H](O)/C=C/C(=O)O1 [BFA, Brefeldin A]
viability of cells (Nalm-6 cells; BFA 25 μg/ml 2 hr at 37° C, then control antibodies): no effect on the viability

COc1cccc2c1C(=O)c1c(O)c3c(c(O)c1C2=O)C[C@@](O)(C(C)=O)C[C@@H]3O[C@H]1C[C@H](N)[C@H](O)[C@H](C)O1 [DNR, Daunorubicin]
Live cells (Nalm 6; DNR 5 ng/ml): 4.3 × 10^5
Live cells × 10^5 (SUP B15; DNR 4 ng/ml): 0.44 × 10^5

CC[C@]1(O)C[C@H]2CN(CCc3c([nH]c4ccccc34)[C@@](C(=O)OC)(c3cc4c(cc3OC)N(C=O)[C@H]3[C@@](O)(C(=O)OC)[C@H](OC(C)=O)[C@]5(CC)C=CCN6CC[C@]43[C@@H]65)C2)C1 [VCR, Vincristine]
Live cells (Nalm 6; VCR 0.2 ng/ml): 13 × 10^5
Live cells (Nalm 6; VCR 2 ng/ml): 5 × 10^5
cell death due to treatment with vincristine alone (Nalm 6; vincristine 0.2 ng/ml, 48 hours at 37° C): no cell death occurred
live cell count (REH; VCR 2 ng/ml): 4.2 × 10^5 and 7.7 × 10^5
Live cells × 10^5 (SUP B15; VCR 2 ng/ml): 2.8 × 10^5

C/C1=C\[C@H](C)C[C@H](C)OC(=O)C[C@H](c2ccc(O)cc2)NC(=O)[C@@H](Cc2c(Br)[nH]c3ccccc23)N(C)C(=O)[C@H](C)NC(=O)[C@@H](C)C1 [jasplakinolide]
viability (percent viable cells) (Nalm-6 cells; then control antibodies): did not show a decrease in viability

Ac-DEVD-CHO
cell viability (Nalm-6 cells): did not alter cell viability

Ac-IETD-aldehyde
cell viability (Nalm-6 cells): did not alter cell viability

cytochalasin
viability (percent viable cells) (Nalm-6 cells; then control antibodies): did not show a decrease in viability

B1: Asparaginase (protein, UniProt P00805 23-348, looked up)
L-asparaginase 2: LPNITILATGGTIAGGGDSATKSNYTVGKVGVENLVNAVPQLKDIANVKGEQVVNIGSQDMNDNVWLTLAKKINTDCDKTDGFVITHGTDTMEETAYFLDLTVKCDKPVVMVGAMRPSTSMSADGPFNLYNAVVTAADKASANRGVLVVMNDTVLDGRDVTKTNTTDVATFKSVNYGPLGYIHNGKIDYQRTPARKHTSDTPFDVSKLNELPKVGIVYNYANASDLPAKALVDAGYDGIVSAGVGNGNLYKSVFDTLATAAKTGTAVVRSSRVPTGATTQDAEVDDAKYGFVASGTLNPQKARVLLQLALTQTKDPQQIQQIFNQY
notes: L-asparaginase, chemotherapeutic enzyme
Live cells (Nalm 6; ASPR 0.8 U/ml): 9.2 × 10^5
live cell count (REH; ASPR 0.8 U/ml): 6.2 × 10^5
Live cells × 10^5 (SUP B15; ASPR 0.8 U/ml): 3 × 10^5
